As usually defined, the IC50 is the concentration that gives 50% inhibition. The inhibition is the change of the read-out against control, counted positive when it falls.

For 29 compounds, IC50 and inhibition results are on record in PubChem BioAssay AID651934 (Southern Research Specialized Biocontainment Screening …, 2012).

Calls of active or inactive are those of the source. The rule behind the calls is not given here.

One experiment deals with Chikungunya virus infected cells, CPE inhibition. The experiment is described as follows: Chikungunya virus CPE inhibitors, dose response, cell-based, secondary assay, set 3 (AID 651934).
Conditions: not given
`O=c1nc(Nc2ccc(OCc3ccccc3)cc2)sc2ncccc12`: the IC50 is 1060 nM.

As for `O=c1nc(Nc2ccc(OCc3ccccc3)cc2)sc2ncc(F)cc12`, the IC50 is 3650 nM.

System in a further experiment: not listed separately
The experiment is described as above. The conditions noted are these: Chikungunya virus infected cells, CPE inhibition; at 0.625 µM (top of the series).
With `COc1ccc(NC(=O)c2cc([N+](=O)[O-])ccc2N=C2CN(C)CCN2C)cc1`, the inhibition was 0.6% (inactive).

Staying with this experiment, now noted: Chikungunya virus infected cells, CPE inhibition; at 25 µM (top of the series).
As for `O=c1nc(N2CCN(Cc3ccccc3)CC2)sc2ncccc12`, the inhibition was 1.8% (inactive).

Turning to `O=c1nc(Nc2ccccc2OCc2ccccc2)sc2ncccc12`, the inhibition was -1% (inactive).

Regarding `CCN1CCN(Cc2nc3ccc(C#N)cc3c(=O)n2-c2ccccc2)CC1`, the inhibition is -0.5% (inactive).

`CCN1CCN(Cc2nc3ccc([N+](=O)[O-])cc3c(=O)n2-c2ccccc2)CC1`: the inhibition is 1.8% (inactive).

With `Cc1cccc(C)c1Nc1nc(=O)c2cccnc2s1`, the inhibition is -0.7% (inactive).

With `CCN1CCN(c2nc3ccc([N+](=O)[O-])cc3c(=O)n2-c2ccccc2)CC1`, the inhibition is -1.4% (inactive).

In the case of `O=c1nc(NC2CCNCC2)sc2ncccc12`, the inhibition was -0.4% (inactive).

As for `CCN1CCN(CC2Nc3ccc([N+](=O)[O-])cc3C(=O)N2c2ccccc2F)CC1` (centres undefined), the inhibition was -0.9% (inactive).

Turning to `O=c1nc(Nc2ccc(OCc3ccccc3)cc2)sc2ncc([N+](=O)[O-])cc12`, the inhibition is -1% (inactive).

For the compound `CCN1CCN(Cc2nc3ccc(S(=O)(=O)O)cc3c(=O)n2-c2ccccc2)CC1`, the inhibition was -0.2% (inactive).

For `CN1CCN(C)C(=Nc2ccc([N+](=O)[O-])cc2C(=O)Nc2ccccc2)C1`, the inhibition is -1.6% (inactive).

As for `O=c1nc(Nc2ccc(F)cc2)sc2ncccc12`, the inhibition was 0.9% (inactive).

The experiment is the same for the next values; noted with them: Chikungunya virus infected cells, CPE inhibition; at 50 µM (top of the series).
For `O=c1nc(Nc2ccc(CCc3ccccc3)cc2)sc2ncccc12`, the inhibition is 44% (inactive).

On to `CNCCCN(C)Cc1nc2ccc([N+](=O)[O-])cc2c(=O)n1-c1ccccc1`, for which the inhibition is 0.8% (inactive).

Turning to `CCN(CC)c1nc(=O)c2cccnc2s1`, the inhibition is -5.8% (inactive).

For `CCN1CCN(Cc2nc3ccc([N+](=O)[O-])cc3c(=O)n2Cc2ccccc2)CC1`, the inhibition was 5.3% (inactive).

As to `O=C1CN(Cc2nc3ccc([N+](=O)[O-])cc3c(=O)n2-c2ccccc2F)CCN1`, the inhibition was 1.2% (inactive).

Turning to `O=c1c2cc([N+](=O)[O-])ccc2nc(CN2CCCNCC2)n1-c1ccccc1`, the inhibition is 4.1% (inactive).

`CCN1CCN(C)CC1=Nc1ccc([N+](=O)[O-])cc1C(=O)Nc1ccccc1`: the inhibition is 1.7% (inactive).

Take `COc1ccc(Nc2nc(=O)c3cccnc3s2)cc1`: the inhibition is -5.2% (inactive).

Turning to `CNCCN(C)Cc1nc2ccc(C#N)cc2c(=O)n1-c1ccccc1F`, the inhibition is 6.3% (inactive).

Regarding `CN1CCN(C)C(=Nc2ccc(F)cc2C(=O)Nc2ccccc2)C1`, the inhibition was 2.2% (inactive).

On to `CCN1CCN(Cc2nc3ccc(-c4nn[nH]n4)cc3c(=O)n2-c2ccccc2)CC1`, for which the inhibition is 0.6% (inactive).

`CCN1CCN(Cc2nc3ccc([N+](=O)[O-])cc3c(=O)n2-c2ccccc2F)CC1`: the inhibition is -3.4% (inactive).

`CN1CCN(C)C(=Nc2cc(Cl)c(C#N)cc2C(=O)Nc2ccccc2)C1`: the inhibition was 2.9% (inactive).

As for `CN1CCN(C)C(=Nc2ccc(C#N)cc2C(=O)Nc2cccc(F)c2)C1`, the inhibition is 3.5% (inactive).
